Source: ChEMBL document CHEMBL1201862, “PubChem BioAssay data set” (2004)
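Exposure lasted 48 hours, with cells grown in 96-well plates and compounds tested at five concentrations. Here, GI50 denotes the concentration required for 50% inhibition of growth.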 The source made the active and inactive calls. Cut-off read from the data, not from the text of the source: active = GI50 up to about 1.1 µM and inactive = higher.

Experiments:
Assay in all cases: DTP human tumour cell line panel, 48 h
A549 = system: A549
ACHN = system: ACHN
CCRF-CEM = system: CCRF-CEM
HCC 2998 = system: HCC 2998
HCT-116 = system: HCT-116
HOP-62 = system: HOP-62
MOLT-4 = system: MOLT-4
Malme-3M = system: Malme-3M
NCI-H23 = system: NCI-H23
OVCAR-3 = system: OVCAR-3
RPMI-8226 = system: RPMI-8226
SF-295 = system: SF-295
SR = system: SR
CAKI-1 = system: CAKI-1
K562 = system: K562
OVCAR-4 = system: OVCAR-4
SK-MEL-5 = system: SK-MEL-5
A498 = system: A498

Measured: GI50

Cc1nc2ccc(C(F)(F)F)cc2nc1Nc1ccc(Cl)c(Cl)c1
inactive: A549 7.14 µM | ACHN 11.3 µM | CCRF-CEM 6.44 µM | HCC 2998 3.72 µM | HCT-116 10.5 µM | HOP-62 16 µM | MOLT-4 7 µM | Malme-3M 19.9 µM | NCI-H23 12.6 µM | OVCAR-3 12.8 µM | RPMI-8226 8.17 µM | SF-295 3.4 µM | SR 8.73 µM

CC1NC(=O)C2=C1C(N)=NC(=O)C2 (centres undefined)
inactive: A549 > 100 µM | ACHN > 100 µM | CAKI-1 > 100 µM | HCC 2998 > 100 µM | HCT-116 > 100 µM | K562 > 100 µM | MOLT-4 > 100 µM | Malme-3M > 100 µM | NCI-H23 > 100 µM | OVCAR-3 > 100 µM | OVCAR-4 > 100 µM | RPMI-8226 > 100 µM | SF-295 > 100 µM | SK-MEL-5 > 100 µM | SR > 100 µM

Cc1ccc2oc(=O)c(-c3ccccc3)nc2c1
inactive: A549 26 µM | ACHN 27.9 µM | CAKI-1 28.9 µM | CCRF-CEM 18.5 µM | HCC 2998 19.9 µM | HCT-116 20.6 µM | HOP-62 36.7 µM | K562 24.3 µM | MOLT-4 10.7 µM | Malme-3M 23.4 µM | NCI-H23 24.7 µM | OVCAR-3 46.5 µM | OVCAR-4 23.8 µM | RPMI-8226 31.5 µM | SF-295 40.5 µM | SK-MEL-5 30.8 µM | SR 29.5 µM

CCCc1[nH]c(SCCCCCCCCSc2nc(-c3ccc(F)cc3)c(CCC)[nH]2)nc1-c1ccc(F)cc1
inactive: A549 11.3 µM | ACHN 54.1 µM | CCRF-CEM 6.59 µM | HCC 2998 > 100 µM | HCT-116 5.42 µM | HOP-62 15.2 µM | K562 3.83 µM | MOLT-4 4.65 µM | NCI-H23 4.49 µM | OVCAR-3 1.94 µM | OVCAR-4 10.3 µM | RPMI-8226 1.98 µM | SK-MEL-5 4.68 µM | SR 7.08 µM

Cc1cc(O)nc(NNC(C#N)c2ccc(O)cc2)n1 (centres undefined)
inactive: A549 > 100 µM | ACHN > 100 µM | CAKI-1 > 100 µM | CCRF-CEM > 100 µM | HCT-116 > 100 µM | HOP-62 > 100 µM | K562 > 100 µM | MOLT-4 > 100 µM | Malme-3M > 100 µM | NCI-H23 > 100 µM | OVCAR-3 > 100 µM | OVCAR-4 > 100 µM | RPMI-8226 > 100 µM | SF-295 > 100 µM | SK-MEL-5 > 100 µM | SR > 100 µM

CC(=O)n1nnc2ccc([N+](=O)[O-])cc21
inactive: A549 > 100 µM | ACHN > 100 µM | CAKI-1 > 100 µM | CCRF-CEM > 100 µM | HCT-116 > 100 µM | HOP-62 > 100 µM | K562 > 100 µM | MOLT-4 > 100 µM | Malme-3M > 100 µM | NCI-H23 > 100 µM | OVCAR-3 > 100 µM | OVCAR-4 > 100 µM | RPMI-8226 > 100 µM | SF-295 > 100 µM | SK-MEL-5 > 100 µM | SR > 100 µM

CC(=O)NC(CCCNC(=O)N(C)N=O)C(=O)NCc1ccccc1 (centres undefined)
inactive: A498 > 100 µM | A549 > 100 µM | ACHN > 100 µM | CAKI-1 > 100 µM | CCRF-CEM > 100 µM | HCC 2998 > 100 µM | HCT-116 > 100 µM | HOP-62 > 100 µM | K562 > 100 µM | MOLT-4 > 100 µM | Malme-3M > 100 µM | NCI-H23 > 100 µM | OVCAR-3 > 100 µM | OVCAR-4 > 100 µM | RPMI-8226 > 100 µM | SF-295 > 100 µM | SK-MEL-5 > 100 µM

C#C[C@H](CCCC)OC(=O)N[C@H](C)c1ccccc1
inactive: A549 36.1 µM | ACHN 41.9 µM | CAKI-1 52.6 µM | CCRF-CEM 34.6 µM | HCT-116 24 µM | HOP-62 > 100 µM | K562 34.6 µM | MOLT-4 31.3 µM | OVCAR-3 53.3 µM | OVCAR-4 42 µM | RPMI-8226 24.5 µM | SF-295 75 µM | SK-MEL-5 21.7 µM | SR 26.9 µM

CC(=O)C1CC(C)=CCC12C(=O)Nc1ccccc12 (centres undefined)
inactive: A498 > 100 µM | A549 > 100 µM | ACHN > 100 µM | CAKI-1 > 100 µM | CCRF-CEM > 100 µM | HCC 2998 > 100 µM | HCT-116 > 100 µM | HOP-62 > 100 µM | K562 > 100 µM | MOLT-4 43 µM | Malme-3M > 100 µM | NCI-H23 > 100 µM | OVCAR-3 > 100 µM | OVCAR-4 > 100 µM | RPMI-8226 > 100 µM | SF-295 > 100 µM | SK-MEL-5 > 100 µM
